Patent US7094909B2, “HIV protease inhibitors, compositions containing the same, their pharmaceutical uses and materials for their synthesis” (priority 2001, dated 2006)
pEC50: −log10 of the molar value. Like-named read-outs stand apart in the source and are kept apart here.

Key:
[1] = system: HIV-1 NL4-3 or HIV-1 NL4-3(I84V/L90M); test: Susceptibility assay, p24 ELISA in infected MT-2 cells; type: cell-based; conditions: Human immunodeficiency virus 1, NL43, MT2, read-out: EC50 or IC50 (mM), values without asterisk (EC50)
Experimental: T-cell lines, CEM-SS, and MT-2, and viruses HIV-1 RF and HIV-1 NL4-3 (pNL4-3) were obtained from the National Institutes of Health (AIDS Research and Reference Reagent Program, Bethesda, Md.).
Compounds were tested in phenotypic susceptibility assays at Virologic, Inc., (See Petropoulos C. J., Parkin N. T., Limoli K. L., Lie Y. S., Wrin T., Huang W., Tian H., Smith D., Winslow G. A., Capon D J, Whitcomb J M. 2000, “A novel phenotypic drug susceptibility assay for human immunodeficiency virus type 1,” Antimicrob Agents Chemother 44(4):920–928) or using the assay described here. MT-2 cells were infected with either HIV-1 NL4-3 or HIV-1 NL4-3([…]) and incubated in the presence of serial 0.5 log dilutions of test compounds. Three days later, culture supernatants were collected and virus production, as determined by p24 ELISA, was assayed. Percent inhibition was calculated as p24 concentration in compound-treated samples as compared to infected, compound-free controls. Inhibition of viral replication is determined by measuring reduction in HIV p24 present in the culture supernatant, using a Beckman-Coulter p24HIV-1 Ag EIA kit and following the supplied protocol. Absorbance is read on a MRX microplate reader (Dynex Technologies). The EC50 was calculated as the concentration of compound that effected a decrease in the p24 production by infected, compound-treated cells to 50% of that produced by infected, compound-free cells.

[2] = system: HIV-1 (HIV-1 RF, HIV-1 NL4-3) in CEM-SS / MT-2 cells; test: Cytopathic effect (CPE) inhibition assay (XTT/MTT dye reduction); type: cell-based; conditions: for pEC50: Human immunodeficiency virus 1, NL43, read-out: Ave CPE EC50; for EC50: Human immunodeficiency virus 1, NL43, read-out: Ave CPE EC50 (mM)
Summary of the method: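 Readout is XTT reduction (A450, 4 h) after six days of culturing virus-infected (moi 0.025–0.819) or mock-infected CEM-SS/MT-2 cells, 2×10^4 per well, with half-log compound series. Antiviral EC50 and cytotoxic CC50 are relative to uninfected compound-free cells. Therapeutic index is CC50 divided by EC50.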

[3] = target: T1, HIV-1 protease (Q7S mutant form) (Human immunodeficiency virus type 1 group M subtype B, UniProt P04585, Q495S); test: HIV-1 Protease RET assay; type: biochemical; conditions: Ave. Ki (nM), RET assay, Q7S enzyme, Morrison tight binding fit
T1 construct: made in house
Summary of the method: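 Ki values fitted with the Morrison tight-binding equation from steady-state RET cleavage (ex 340, em 490 nm) of 5 μM RE(EDANS)SQNYPIVQK(DABCYL)R. Buffer pH 4.8 acetate, 1M NaCl, 5 mM DTT, 1 mg/ml BSA, 10% DMSO; 2 nM Q7S mutant dimer, 37 °C, 12 min.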

Cc1c(O)cccc1C(=O)N[C@@H](Cc1ccccc1)[C@H](O)C(=O)N1CSC(C)(C)[C@H]1C(=O)N[C@H]1CCCc2sccc21 [Example A50, 3-[2-Hydroxy-3-(3-hydroxy-2-methyl-benzoylamino)-4-phenyl-butyryl]-5,5-dimethyl-thiazolidine-4-carboxylic acid (4,5,6,7-tetrahydro-benzo[b]thiophen-4-yl)-amide]
EC50 [1]: 0.125 µM | pEC50 [2]: 7.62 | Ki [3]: < 0.1 nM

Cc1c(O)cccc1C(=O)N[C@@H](Cc1ccccc1)[C@H](O)C(=O)N1CSC(C)(C)[C@H]1C(=O)N[C@H]1CCc2ncccc21 [Example A51, 3-[2-Hydroxy-3-(3-hydroxy-2-methyl-benzoylamino)-4-phenyl-butyryl]-5,5-dimethyl-thiazolidine-4-carboxylic acid (6,7-dihydro-5H-[1]pyrindin-5-yl)-amide]
EC50 [1]: 0.05 µM | pEC50 [2]: 6.80 | Ki [3]: < 0.1 nM

Cc1occc1CNC(=O)[C@H]1N(C(=O)[C@@H](O)[C@H](Cc2ccccc2)NC(=O)c2cccc(O)c2C)CSC1(C)C [Example A53, (R)-3-((2S,3S)-2-Hydroxy-3-{[1-(3-hydroxy-2-methyl-phenyl)-methanoyl]-amino}-4-phenyl-butanoyl)-5,5-dimethyl-thiazolidine-4-carboxylic acid (2-methyl-furan-3-ylmethyl)-amide]
EC50 [1]: 0.07 µM | pEC50 [2]: 7.55 | Ki [3]: < 0.1 nM

Cc1c(O)cccc1C(=O)N[C@@H](Cc1ccccc1)[C@H](O)C(=O)N1CSC(C)(C)[C@H]1C(=O)N[C@H]1CCOc2c(F)cc(F)cc21 [Example A55, (R)-3-((2S,3S)-2-Hydroxy-3-{[1-(3-hydroxy-2-methyl-phenyl)-methanoyl]-amino}-4-phenyl-butanoyl)-5,5-dimethyl-thiazolidine-4-carboxylic acid ((S)-6,8-difluoro-chroman-4-yl)-amide]
EC50 [1]: 0.798 µM | pEC50 [2]: 7.27 | Ki [3]: 0.21 nM

Cc1c(O)cccc1C(=O)N[C@@H](Cc1ccccc1)[C@H](O)C(=O)N1CSC(C)(C)[C@H]1C(=O)N[C@H]1CCc2cc(F)ccc21 [Example A56, (R)-3-((2S,3S)-2-Hydroxy-3-{[1-(3-hydroxy-2-methyl-phenyl)-methanoyl]-amino}-4-phenyl-butanoyl)-5,5-dimethyl-thiazolidine-4-carboxylic acid ((S)-5-fluoro-indan-1-yl)-amide]
EC50 [1]: 0.378 µM | pEC50 [2]: 7.38 | Ki [3]: 0.27 nM

C=CCOC(=O)N[C@@H](Cc1ccccc1)[C@H](O)C(=O)N1CSC(C)(C)[C@H]1C(=O)NCc1ccccc1C [Example B11, {(1S,2S)-1-Benzyl-3-[(R)-5,5-dimethyl-4-(2-methyl-benzylcarbamoyl)-thiazolidin-3-yl]-2-hydroxy-3-oxo-propyl}-carbamic acid allyl ester]
EC50 [1]: 2.02 µM | pEC50 [2]: 6.25 | Ki [3]: 0.86 nM

Cc1ccccc1CNC(=O)[C@H]1N(C(=O)[C@@H](O)[C@H](Cc2ccccc2)NC(=O)CC(F)(F)F)CSC1(C)C [Example B19, (R)-3-[(2S,3S)-2-Hydroxy-4-phenyl-3-(3,3,3-trifluoropropionylamino)-butyryl]-5,5-dimethyl-thiazolidine-4-carboxylic acid 2-methyl-benzylamide]
EC50 [1]: 1.3 µM | pEC50 [2]: 5.80 | Ki [3]: 1.4 nM

Cc1ccccc1CNC(=O)[C@H]1N(C(=O)[C@@H](O)[C@H](Cc2ccccc2)NC(=O)COc2c(Cl)cccc2Cl)CSC1(C)C [Example B77, (R)-3-{(2S,3S)-3-[2-(2,6-Dichloro-phenoxy)-acetylamino]-2-hydroxy-4-phenyl-butyryl}-5,5-dimethyl-thiazolidine-4-carboxylic acid 2-methyl-benzylamide]
EC50 [1]: 1.63 µM | pEC50 [2]: 6.84 | Ki [3]: < 0.1 nM

Cc1ccccc1C(=O)N[C@@H](Cc1ccccc1)[C@H](O)C(=O)N1CSC(C)(C)[C@H]1C(=O)N[C@@H]1C=CCCC1 [Example B80, (R)-3-{(2S,3S)-2-Hydroxy-4-phenyl-3-[(1-o-tolyl-methanoyl)-amino]-butanoyl}-5,5-dimethyl-thiazolidine-4-carboxylic acid (S)-cyclohex-2-enylamide]
EC50 [1]: 1.38 µM | pEC50 [2]: 6.38 | Ki [3]: 0.15 nM

Cc1c(O)cccc1C(=O)N[C@@H](Cc1ccccc1)[C@H](O)C(=O)N1CSC2(CCCC2)[C@H]1C(=O)N[C@H]1CCc2ccccc21 [Example B83, (R)-3-((2S,3S)-2-Hydroxy-3-{[1-(3-hydroxy-2-methyl-phenyl)-methanoyl]-amino}-4-phenyl-butanoyl)-1-thia-3-aza-spiro[4.4]nonane-4-carboxylic acid (S)-indan-1-ylamide]
EC50 [1]: 0.202 µM | pEC50 [2]: 8.05 | Ki [3]: < 0.1 nM

Cc1c(O)cccc1C(=O)N[C@@H](Cc1ccccc1)[C@H](O)C(=O)N1CSC2(CCCCC2)[C@H]1C(=O)N[C@@H]1C=CCCC1 [Example B84, (R)-3-((2S,3S)-2-Hydroxy-3-{[1-(3-hydroxy-2-methyl-phenyl)-methanoyl]-amino}-4-phenyl-butanoyl)-1-thia-3-aza-spiro[4.5]decane-4-carboxylic acid (S)-cyclohex-2-enylamide]
EC50 [1]: 0.686 µM | pEC50 [2]: 8.05 | Ki [3]: < 0.1 nM

Cc1ccccc1CNC(=O)[C@@H]1CC(F)(F)CN1C(=O)[C@@H](O)[C@H](Cc1ccccc1)NC(=O)c1cccc(O)c1C [Example C1, (S)-4,4-Difluoro-1-[(2S,3S)-2-hydroxy-3-(3-hydroxy-2-methyl-benzoylamino)-4-phenyl-butyryl]-pyrrolidine-2-carboxylic acid 2-methyl-benzylamide]
EC50 [1]: 0.427 µM | EC50 [2]: 0.627 µM | Ki [3]: 0.38 nM

Cc1c(O)cccc1C(=O)N[C@@H](Cc1ccccc1)[C@H](O)C(=O)N1CC(F)(F)C[C@H]1C(=O)N[C@@H]1C=CCCC1 [Example C4, (S)-4,4-Difluoro-1-((2S,3S)-2-hydroxy-3-{[1-(3-hydroxy-2-methyl-phenyl)-methanoyl]-amino}-4-phenyl-butanoyl)-pyrrolidine-2-carboxylic acid (S)-cyclohex-2-enylamide]
EC50 [1]: 1.9 µM | pEC50 [2]: 6.63 | Ki [3]: 0.17 nM

Cc1c(F)cccc1CNC(=O)[C@@H]1CC(F)(F)CN1C(=O)[C@@H](O)[C@H](Cc1ccccc1)NC(=O)c1cccc(O)c1C [Example C5, (S)-4,4-Difluoro-1-((2S,3S)-2-hydroxy-3-{[1-(3-hydroxy-2-methyl-phenyl)-methanoyl]-amino}-4phenyl-butanoyl)-pyrrolidine-2-carboxylic acid 3-fluoro-2-methyl-benzylamide]
EC50 [1]: 1.61 µM | pEC50 [2]: 6.17 | Ki [3]: 0.6 nM

Cc1ccc(F)cc1CNC(=O)[C@@H]1CC(F)(F)CN1C(=O)[C@@H](O)[C@H](Cc1ccccc1)NC(=O)c1cccc(O)c1C [Example C6, (S)-4,4-Difluoro-1-((2S,3S)-2-hydroxy-3-{[1-(3-hydroxy-2-methyl-phenyl)-methanoyl]-amino}-4-phenyl-butanoyl)-pyrrolidine-2-carboxylic acid 5-fluoro-2-methyl-benzylamide]
EC50 [1]: 1.94 µM | pEC50 [2]: 6.13 | Ki [3]: 2.4 nM

C/C=C(\C)CNC(=O)[C@@H]1CC(F)(F)CN1C(=O)[C@@H](O)[C@H](Cc1ccccc1)NC(=O)c1cccc(O)c1C [Example C8, (S)-4,4-Difluoro-1-((2S,3S)-2-hydroxy-3-{[1-(3-hydroxy-2-methyl-phenyl)-methanoyl]-amino}-4-phenyl-butanoyl)-pyrrolidine-2-carboxylic acid ((E)-2-methyl-but-2-enyl)-amide]
EC50 [1]: 1.42 µM | EC50 [2]: 0.152 µM | Ki [3]: 1.5 nM
